Laboratory results published in patent US10597388B2, “Pyridazinone herbicides” (FMC CORPORATION, priority 2014, dated 2020).

Legend:
Type in all cases: in vivo
[1] = test system: blackgrass (Alopecurus myosuroides); assay: Test A greenhouse herbicide test, postemergence; conditions: for Blackgrass plant response rating: 0 to 100 scale, 0 is no effect, 100 is complete control
Method in brief: (§1)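 Scores are visual injury ratings from 0 (no effect) to 100 (complete control) versus untreated plants, taken roughly 10 d after treatment in the greenhouse. Treatment was postemergence, on one- to two-leaf plants 2–10 cm high growing in a loam soil/sand mix.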

[2] = test system: galium (catchweed bedstraw, Galium aparine); assay: Test A greenhouse herbicide test, postemergence; conditions: for Galium plant response rating: 0 to 100 scale, 0 is no effect, 100 is complete control
Method in brief: as §1

corn (Zea mays) = assay: Test A greenhouse herbicide test, pre- and postemergence; conditions: Postemergence; for Corn plant response rating: 0 to 100 scale, 0 is no effect, 100 is complete control
Method in brief: (§2)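 Visual injury ratings, 0 (no effect) to 100 (complete control), versus untreated plants after roughly 10 d in a greenhouse. Compounds, formulated in a surfactant-containing non-phytotoxic solvent, were sprayed on loam–sand soil after sowing (pre) or on one- to two-leaf plants 2–10 cm tall (post).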

[3] = test system: ragweed (common ragweed, Ambrosia elatior); assay: as above
Method in brief: as §2

[4] = test system: pigweed (Amaranthus retroflexus); assay: as above
Method in brief: as §2

[5] = test system: barnyardgrass (Echinochloa crus-galli); assay: as above
Method in brief: as §2

[6] = test system: foxtail, giant (giant foxtail, Setaria faberii); assay: as above
Method in brief: as §2

[7] = test system: galium (catchweed bedstraw, Galium aparine); assay: Test C greenhouse herbicide test, pre- and postemergence
Method in brief: (§3)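 Percent-control ratings (0 none, 100 complete) came from visual comparison with controls held alongside in the greenhouse for 13–15 d. Treatments covered soil application at sowing and foliar application to young plants 2–18 cm tall.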

[8] = test system: wheat (winter wheat, Triticum aestivum); assay: as above
Method in brief: as §3

[9] = test system: nutsedge, yellow (yellow nutsedge, Cyperus esculentus); assay: as above
Method in brief: as §3

[10] = test system: barnyardgrass (Echinochloa crus-galli); assay: as above
Method in brief: as §3

[11] = Postemergence, 1000 g ai/ha, 0 to 100 scale, 0 is no effect, 100 is complete control
[12] = Preemergence, 1000 g ai/ha, 0 to 100 scale, 0 no effect, 100 complete control
[13] = Postemergence, 31 g ai/ha, 0 to 100 scale (0 no effect, 100 complete control)
[14] = Postemergence, 125 g ai/ha, scale 0 to 100, 0 is no effect, 100 is complete control
[15] = Postemergence, 250 g ai/ha, scale 0 to 100, 0 no effect, 100 complete control, 13 to 15 d
[16] = Preemergence, 31 g ai/ha, scale 0 to 100, 0 is no effect, 100 is complete control
[17] = Preemergence, 62 g ai/ha, scale 0 to 100, 0 is no effect, 100 is complete control
[18] = Preemergence, 125 g ai/ha, scale 0 to 100, 0 is no effect, 100 is complete control
[19] = Preemergence, 250 g ai/ha, scale 0 to 100 (0 no effect, 100 complete control)
[20] = postemergence, 62 g ai/ha, scale 0 to 100, 0 no effect, 100 complete control
[21] = 125 g ai/ha, 0 to 100 scale where 0 is no effect and 100 is complete control
[22] = Postemergence, 125 g ai/ha, 0 to 100 scale where 0 is no effect and 100 is complete control
[23] = Postemergence, 500 g ai/ha, 0 to 100 scale, 0 is no effect, 100 is complete control
[24] = Preemergence, 125 g ai/ha, 0 to 100 scale where 0 is no effect and 100 is complete control
[25] = Preemergence, 500 g ai/ha, 0 to 100 scale, 0 no effect, 100 complete control

Structure (SMILES): Cc1ccc2ccc(C)c(-c3c(O)c(C)nn(C)c3=O)c2c1 [Compound 60]
- Blackgrass plant response rating ([1]; 1000 g ai/ha): 90
- Galium plant response rating ([2]; 1000 g ai/ha): 100
- Corn plant response rating (corn (Zea mays); 1000 g ai/ha): 50
- Ragweed plant response rating [3, 11]: 100
- Plant response rating, Ragweed [3, 12]: 100
- Pigweed plant response rating [4, 11]: 100
- Plant response rating, Pigweed [4, 12]: 100
- Barnyardgrass plant response rating [5, 11]: 90
- Plant response rating, Barnyardgrass [5, 12]: 80
- Foxtail, Giant plant response rating [6, 11]: 90
- Plant response rating, Foxtail, Giant [6, 12]: 90
- Galium plant response rating [7, 13]: 100
- Plant response rating, Galium [7, 14]: 100
- Plant response rating, Galium [7, 15]: 100
- Plant response rating, Galium [7, 16]: 90
- Plant response rating, Galium [7, 17]: 95
- Plant response rating, Galium [7, 18]: 98
- Galium plant response rating [7, 19]: 100
- Galium plant response rating [7, 20]: 100
- Wheat plant response rating [8, 13]: 5
- Plant response rating, Wheat [8, 14]: 30
- Plant response rating, Wheat [8, 15]: 15
- Plant response rating, Wheat [8, 16]: 10
- Plant response rating, Wheat [8, 17]: 40
- Plant response rating, Wheat [8, 18]: 45
- Wheat plant response rating [8, 19]: 70
- Wheat plant response rating [8, 20]: 5
- Nutsedge, Yellow plant response rating [9, 13]: 85
- Plant response rating, Nutsedge, Yellow [9, 14]: 90
- Plant response rating, Nutsedge, Yellow [9, 15]: 95
- Plant response rating, Nutsedge, Yellow [9, 16]: 45
- Plant response rating, Nutsedge, Yellow [9, 17]: 45
- Plant response rating, Nutsedge, Yellow [9, 18]: 85
- Nutsedge, Yellow plant response rating [9, 19]: 85
- Nutsedge, Yellow plant response rating [9, 20]: 85
- Barnyardgrass plant response rating [10, 13]: 20
- Plant response rating, Barnyardgrass [10, 14]: 35
- Plant response rating, Barnyardgrass [10, 15]: 65
- Plant response rating, Barnyardgrass [10, 16]: 10
- Plant response rating, Barnyardgrass [10, 17]: 40
- Plant response rating, Barnyardgrass [10, 18]: 85
- Barnyardgrass plant response rating [10, 19]: 90
- Barnyardgrass plant response rating [10, 20]: 25

Structure (SMILES): Cc1nn(C)c(=O)c(-c2c(C)sc3ccccc23)c1O [Compound 65]
- Plant response rating, Blackgrass [1, 21]: 20
- Blackgrass plant response rating ([1]; 500 g ai/ha): 70
- Plant response rating, Galium [2, 21]: 90
- Galium plant response rating ([2]; 500 g ai/ha): 100
- Plant response rating, Corn (corn (Zea mays); [21]): 0
- Corn plant response rating (corn (Zea mays); 500 g ai/ha): 0
- Plant response rating, Ragweed [3, 22]: 50
- Ragweed plant response rating [3, 23]: 90
- Ragweed plant response rating [3, 24]: 70
- Plant response rating, Ragweed [3, 25]: 80
- Plant response rating, Pigweed [4, 22]: 80
- Pigweed plant response rating [4, 23]: 90
- Pigweed plant response rating [4, 24]: 100
- Plant response rating, Pigweed [4, 25]: 100
- Plant response rating, Barnyardgrass [5, 22]: 20
- Barnyardgrass plant response rating [5, 23]: 90
- Barnyardgrass plant response rating [5, 24]: 60
- Plant response rating, Barnyardgrass [5, 25]: 90
- Plant response rating, Foxtail, Giant [6, 22]: 20
- Foxtail, Giant plant response rating [6, 23]: 90
- Foxtail, Giant plant response rating [6, 24]: 60
- Plant response rating, Foxtail, Giant [6, 25]: 90
- Galium plant response rating [7, 13]: 85
- Plant response rating, Galium [7, 14]: 90
- Plant response rating, Galium [7, 15]: 90
- Galium plant response rating [7, 20]: 85
- Wheat plant response rating [8, 13]: 0
- Plant response rating, Wheat [8, 14]: 0
- Plant response rating, Wheat [8, 15]: 0
- Wheat plant response rating [8, 20]: 0
- Nutsedge, Yellow plant response rating [9, 13]: 25
- Plant response rating, Nutsedge, Yellow [9, 14]: 60
- Plant response rating, Nutsedge, Yellow [9, 15]: 65
- Nutsedge, Yellow plant response rating [9, 20]: 50
- Barnyardgrass plant response rating [10, 13]: 10
- Plant response rating, Barnyardgrass [10, 14]: 35
- Plant response rating, Barnyardgrass [10, 15]: 50
- Barnyardgrass plant response rating [10, 20]: 15
